Assay results taken from doi:10.1101/2023.11.24.568596v1 (biorxiv, 2023).

Tests used:
Settings in all cases: binder
[1] = biological target: T1, DYRK2 (Homo sapiens, UniProt Q92630)
T1 sequence (Q92630 1-601): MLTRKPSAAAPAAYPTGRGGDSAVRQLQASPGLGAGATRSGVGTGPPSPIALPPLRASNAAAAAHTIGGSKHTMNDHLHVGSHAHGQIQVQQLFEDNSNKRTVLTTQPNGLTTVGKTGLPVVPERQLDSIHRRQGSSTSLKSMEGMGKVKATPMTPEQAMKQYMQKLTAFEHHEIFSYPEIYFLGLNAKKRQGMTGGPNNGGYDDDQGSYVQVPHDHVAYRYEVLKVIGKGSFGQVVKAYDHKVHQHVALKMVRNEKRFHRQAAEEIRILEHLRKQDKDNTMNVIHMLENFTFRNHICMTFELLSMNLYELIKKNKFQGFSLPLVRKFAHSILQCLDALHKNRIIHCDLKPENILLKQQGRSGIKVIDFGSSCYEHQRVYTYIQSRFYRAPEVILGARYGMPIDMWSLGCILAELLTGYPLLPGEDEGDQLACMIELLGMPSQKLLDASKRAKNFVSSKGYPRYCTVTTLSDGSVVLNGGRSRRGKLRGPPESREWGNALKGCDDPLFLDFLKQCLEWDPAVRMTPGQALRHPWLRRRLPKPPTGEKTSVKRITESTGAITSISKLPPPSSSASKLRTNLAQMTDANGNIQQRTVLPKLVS

[2] = biological target: T2, CASK (Homo sapiens, UniProt O14936)
T2 sequence (O14936 1-926): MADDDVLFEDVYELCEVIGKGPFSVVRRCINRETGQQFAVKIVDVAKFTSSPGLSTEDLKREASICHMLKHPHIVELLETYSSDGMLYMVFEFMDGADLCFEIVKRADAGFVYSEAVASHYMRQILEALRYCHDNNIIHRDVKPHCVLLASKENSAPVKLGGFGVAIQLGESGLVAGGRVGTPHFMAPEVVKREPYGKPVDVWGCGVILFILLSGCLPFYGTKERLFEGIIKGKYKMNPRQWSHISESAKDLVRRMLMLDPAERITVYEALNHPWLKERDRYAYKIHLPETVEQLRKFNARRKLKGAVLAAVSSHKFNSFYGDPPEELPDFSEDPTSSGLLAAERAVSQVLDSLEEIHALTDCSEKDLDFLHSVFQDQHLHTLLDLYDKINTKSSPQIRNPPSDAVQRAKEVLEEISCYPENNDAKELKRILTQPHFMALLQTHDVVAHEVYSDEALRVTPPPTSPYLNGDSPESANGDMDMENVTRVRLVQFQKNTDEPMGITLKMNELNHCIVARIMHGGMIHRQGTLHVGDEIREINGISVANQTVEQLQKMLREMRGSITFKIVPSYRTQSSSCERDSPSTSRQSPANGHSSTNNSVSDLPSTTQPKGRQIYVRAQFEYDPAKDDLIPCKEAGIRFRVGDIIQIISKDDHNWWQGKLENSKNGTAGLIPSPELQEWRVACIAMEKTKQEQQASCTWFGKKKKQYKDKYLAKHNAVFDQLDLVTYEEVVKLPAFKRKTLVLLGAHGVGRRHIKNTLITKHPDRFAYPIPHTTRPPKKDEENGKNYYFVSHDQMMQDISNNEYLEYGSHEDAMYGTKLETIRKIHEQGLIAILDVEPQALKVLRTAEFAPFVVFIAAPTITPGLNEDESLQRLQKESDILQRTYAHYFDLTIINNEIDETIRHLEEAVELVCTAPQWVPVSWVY

[3] = biological target: DAPK3 (Homo sapiens, UniProt O43293)
DAPK3, sequence (O43293 whole entry): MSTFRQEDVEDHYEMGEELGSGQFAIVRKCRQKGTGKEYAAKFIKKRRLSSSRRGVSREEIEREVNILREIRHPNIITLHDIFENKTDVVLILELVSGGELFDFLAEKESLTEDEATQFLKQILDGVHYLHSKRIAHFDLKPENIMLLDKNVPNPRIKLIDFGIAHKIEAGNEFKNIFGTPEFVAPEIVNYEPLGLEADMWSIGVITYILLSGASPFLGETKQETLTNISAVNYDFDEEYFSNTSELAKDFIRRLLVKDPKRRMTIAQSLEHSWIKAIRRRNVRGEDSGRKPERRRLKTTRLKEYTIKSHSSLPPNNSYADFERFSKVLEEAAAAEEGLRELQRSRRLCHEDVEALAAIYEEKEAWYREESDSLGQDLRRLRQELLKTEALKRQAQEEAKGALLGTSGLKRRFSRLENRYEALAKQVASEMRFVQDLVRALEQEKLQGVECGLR

[4] = biological target: EphA2 (Homo sapiens, UniProt P29317)
EphA2, sequence (P29317 whole entry): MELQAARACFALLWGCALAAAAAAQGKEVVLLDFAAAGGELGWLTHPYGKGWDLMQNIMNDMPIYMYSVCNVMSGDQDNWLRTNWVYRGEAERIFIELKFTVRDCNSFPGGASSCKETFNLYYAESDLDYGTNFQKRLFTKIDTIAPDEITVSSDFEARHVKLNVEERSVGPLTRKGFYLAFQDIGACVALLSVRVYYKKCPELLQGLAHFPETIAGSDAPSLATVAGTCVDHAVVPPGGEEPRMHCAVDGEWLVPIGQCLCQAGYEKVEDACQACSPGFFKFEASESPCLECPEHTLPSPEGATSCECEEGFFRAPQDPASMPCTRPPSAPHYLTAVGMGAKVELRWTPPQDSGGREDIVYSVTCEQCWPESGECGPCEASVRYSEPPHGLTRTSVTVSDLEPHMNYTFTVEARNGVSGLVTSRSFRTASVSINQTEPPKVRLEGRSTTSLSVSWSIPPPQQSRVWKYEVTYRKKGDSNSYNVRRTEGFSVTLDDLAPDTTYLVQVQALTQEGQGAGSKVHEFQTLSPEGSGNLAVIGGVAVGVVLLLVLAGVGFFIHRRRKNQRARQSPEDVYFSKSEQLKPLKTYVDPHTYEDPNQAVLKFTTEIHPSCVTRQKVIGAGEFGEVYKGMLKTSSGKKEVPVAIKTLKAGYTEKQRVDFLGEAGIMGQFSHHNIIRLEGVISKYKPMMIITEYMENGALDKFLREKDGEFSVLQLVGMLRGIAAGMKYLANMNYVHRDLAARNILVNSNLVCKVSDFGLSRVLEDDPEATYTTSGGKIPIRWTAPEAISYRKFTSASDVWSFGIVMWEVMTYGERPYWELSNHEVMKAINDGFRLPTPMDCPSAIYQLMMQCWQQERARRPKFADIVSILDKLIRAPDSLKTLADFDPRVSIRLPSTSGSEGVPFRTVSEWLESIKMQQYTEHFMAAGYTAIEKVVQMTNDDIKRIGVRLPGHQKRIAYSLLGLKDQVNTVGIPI

[5] = biological target: MAPKAPK2 (Homo sapiens, UniProt P49137)
MAPKAPK2, sequence (P49137 whole entry): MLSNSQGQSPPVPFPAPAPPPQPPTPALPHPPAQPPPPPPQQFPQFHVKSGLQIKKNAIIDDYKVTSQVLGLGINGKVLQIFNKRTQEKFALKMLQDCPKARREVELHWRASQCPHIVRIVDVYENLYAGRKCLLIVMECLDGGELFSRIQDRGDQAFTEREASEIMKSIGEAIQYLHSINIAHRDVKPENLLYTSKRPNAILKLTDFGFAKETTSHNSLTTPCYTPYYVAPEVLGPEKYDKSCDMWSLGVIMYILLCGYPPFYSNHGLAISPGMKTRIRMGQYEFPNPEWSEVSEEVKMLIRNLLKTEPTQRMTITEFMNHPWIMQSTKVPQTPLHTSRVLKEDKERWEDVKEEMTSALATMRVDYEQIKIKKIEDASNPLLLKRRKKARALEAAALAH

[6] = biological target: MST4 (Homo sapiens, UniProt Q9P289)
MST4, sequence (Q9P289 whole entry): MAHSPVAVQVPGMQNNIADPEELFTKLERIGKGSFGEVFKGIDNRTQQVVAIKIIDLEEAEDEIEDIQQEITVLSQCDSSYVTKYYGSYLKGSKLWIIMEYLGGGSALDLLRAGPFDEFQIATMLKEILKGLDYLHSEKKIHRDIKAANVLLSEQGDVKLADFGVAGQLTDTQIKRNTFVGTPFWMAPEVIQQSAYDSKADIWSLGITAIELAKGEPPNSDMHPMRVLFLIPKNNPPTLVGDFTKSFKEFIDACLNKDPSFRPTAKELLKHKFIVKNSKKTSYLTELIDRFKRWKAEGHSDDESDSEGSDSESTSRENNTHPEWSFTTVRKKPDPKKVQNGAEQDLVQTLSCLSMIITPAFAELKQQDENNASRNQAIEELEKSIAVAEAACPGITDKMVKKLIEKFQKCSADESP

[7] = biological target: MST3 (Homo sapiens, UniProt Q9Y6E0)
MST3, sequence (Q9Y6E0 whole entry): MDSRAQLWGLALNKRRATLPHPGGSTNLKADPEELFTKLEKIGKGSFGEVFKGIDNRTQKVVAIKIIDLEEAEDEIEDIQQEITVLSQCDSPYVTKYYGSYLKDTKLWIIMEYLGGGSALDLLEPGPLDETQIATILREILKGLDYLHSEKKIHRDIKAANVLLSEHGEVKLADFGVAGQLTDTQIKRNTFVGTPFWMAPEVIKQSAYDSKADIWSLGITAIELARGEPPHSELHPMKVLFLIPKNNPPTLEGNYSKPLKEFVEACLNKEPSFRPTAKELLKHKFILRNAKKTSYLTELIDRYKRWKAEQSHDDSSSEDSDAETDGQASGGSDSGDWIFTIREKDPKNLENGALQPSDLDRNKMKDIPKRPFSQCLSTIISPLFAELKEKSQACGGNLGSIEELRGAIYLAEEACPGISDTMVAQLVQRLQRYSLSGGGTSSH

[8] = biological target: T3, MAP2K6 (Homo sapiens, UniProt P52564)
T3 sequence (P52564 1-334): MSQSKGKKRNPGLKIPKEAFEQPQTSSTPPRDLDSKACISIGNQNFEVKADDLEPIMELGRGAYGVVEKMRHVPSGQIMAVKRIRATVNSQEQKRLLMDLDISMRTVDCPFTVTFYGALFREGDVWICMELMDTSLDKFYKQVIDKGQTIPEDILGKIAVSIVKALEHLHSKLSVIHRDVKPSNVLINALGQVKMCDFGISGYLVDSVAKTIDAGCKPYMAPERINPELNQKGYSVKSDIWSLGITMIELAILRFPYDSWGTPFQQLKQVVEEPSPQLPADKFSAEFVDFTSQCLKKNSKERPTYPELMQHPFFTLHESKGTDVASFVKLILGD

For `Cc1cccc(-c2ccc(-c3cc4cnc(NCCCN5CCCC5=O)nc4n(CCCCN)c3=O)c(Cl)c2)n1` [compound 27, MR30], the “ΔTm MR30 (27)” value [1] was -0.4 °C, the “ΔTm MR30 (27)” value [2] was -0.3 °C and the “ΔTm MR30 (27)” value [3] was 0.6 °C. The “ΔTm MR30 (27)” value [4] was 3.6 °C, the “ΔTm MR30 (27)” value [5] was -0.3 °C and the “ΔTm MR30 (27)” value [6] was 7.9 °C. The “ΔTm MR30 (27)” value [7] was 9.8 °C and the “ΔTm MR30 (27)” value [8] was 4.1 °C.

With `Cc1cccc(-c2ccc(-c3cc4cnc(Nc5cc(C(F)(F)F)ccc5C)nc4n(CCCCN)c3=O)c(Cl)c2)n1` [compound 28, 8-(4-Aminobutyl)-6-(2-chloro-4-(6-methylpyridin-2-yl)phenyl)-2-((2-methyl-5-(trifluoromethyl)phenyl)amino)pyrido[2,3-d]pyrimidin-7(8H)-one] the “ΔTm 28” value [1] was -0.7 °C, the “ΔTm 28” value [2] was 0.0 °C and the “ΔTm 28” value [3] was 1.0 °C. For the same compound, the “ΔTm 28” value [4] was 4.5 °C, the “ΔTm 28” value [5] was -0.2 °C and the “ΔTm 28” value [6] was 8.8 °C. For the same compound, the “ΔTm 28” value [7] was 12.1 °C and the “ΔTm 28” value [8] was 7.5 °C.

For `Cc1cccc(-c2ccc(-c3cc4cnc(NCCCN5CCNCC5)nc4n(CCCCN)c3=O)c(Cl)c2)n1` [compound 29, 8-(4-Aminobutyl)-6-(2-chloro-4-(6-methylpyridin-2-yl)phenyl)-2-((3-(piperazin-1-yl)propyl)amino)pyrido[2,3-d]pyrimidin-7(8H)-one], the “ΔTm 29” value [1] was -0.2 °C, the “ΔTm 29” value [2] was -0.5 °C and the “ΔTm 29” value [3] was 0.0 °C. The “ΔTm 29” value [4] was 5.1 °C, the “ΔTm 29” value [5] was -0.2 °C and the “ΔTm 29” value [6] was 10.2 °C. The “ΔTm 29” value [7] was 14.3 °C and the “ΔTm 29” value [8] was 1.9 °C.

For `Cc1cccc(-c2ccc(-c3cc4cnc(Nc5ccc(CCCO)cc5)nc4n(CCCCN)c3=O)c(Cl)c2)n1` [compound 30, 8-(4-Aminobutyl)-6-(2-chloro-4-(6-methylpyridin-2-yl)phenyl)-2-((4-(3-hydroxypropyl)phenyl)amino)pyrido[2,3-d]pyrimidin-7(8H)-one], the “ΔTm 30” value [1] was -1.1 °C, the “ΔTm 30” value [2] was -0.5 °C and the “ΔTm 30” value [3] was 2.9 °C. For the same compound, the “ΔTm 30” value [4] was 7.7 °C, the “ΔTm 30” value [5] was -0.3 °C and the “ΔTm 30” value [6] was 15.3 °C. The “ΔTm 30” value [7] was 15.5 °C and the “ΔTm 30” value [8] was 9.4 °C.

For `Cc1cccc(-c2ccc(-c3cc4cnc(Nc5ccc(O)cc5)nc4n(CCCCN)c3=O)c(Cl)c2)n1` [compound 31, 8-(4-Aminobutyl)-6-(2-chloro-4-(6-methylpyridin-2-yl)phenyl)-2-((4-hydroxyphenyl)amino) pyrido[2,3-d]pyrimidin-7(8H)-one], the “ΔTm 31” value [1] was -0.8 °C, the “ΔTm 31” value [2] was -0.2 °C and the “ΔTm 31” value [3] was 2.0 °C. For the same compound, the “ΔTm 31” value [4] was 8.1 °C, the “ΔTm 31” value [5] was -0.1 °C and the “ΔTm 31” value [6] was 14.7 °C. For the same compound, the “ΔTm 31” value [7] was 16.1 °C and the “ΔTm 31” value [8] was 9.4 °C.

In the case of `Cc1cccc(-c2ccc(-c3cc4cnc(Nc5ccc(C)c(O)c5)nc4n(CCCCN)c3=O)c(Cl)c2)n1` [compound 32, 8-(4-Aminobutyl)-6-(2-chloro-4-(6-methylpyridin-2-yl)phenyl)-2-((3-hydroxy-4-methylphenyl)amino)pyrido[2,3-d]pyrimidin-7(8H)-one], the “ΔTm 32” value [1] is reported as -1.4 °C, the “ΔTm 32” value [2] is reported as 0.0 °C and the “ΔTm 32” value [3] is reported as 2.6 °C. For the same compound, the “ΔTm 32” value [4] was 7.9 °C, the “ΔTm 32” value [5] was -0.1 °C and the “ΔTm 32” value [6] was 15.5 °C. For the same compound, the “ΔTm 32” value [7] was 15.4 °C and the “ΔTm 32” value [8] was 8.9 °C.
